In ChEMBL document CHEMBL5360658, “Discovery of MK-8768, a Potent and Selective mGluR2 Negative Allosteric Modulator” (ACS Med Chem Lett, 2023):
In brackets after ≈: the same amount, converted by molar mass.

Legend:
[1] = Volume of distribution in monkey at 0.5 mg/kg, iv; type: ADME, organism-based, Macaca mulatta; details: rhesus monkey, in vivo
[2] = target: Cytochrome P450 2C19 (Homo sapiens, UniProt P33261); assay: […] of CYP2C19 (unknown origin); type: ADME
[3] = Oral bioavailability in rat at 2 mg/kg; type: ADME, organism-based; details: in vivo
[4] = Fraction unbound in dog plasma; type: ADME, cell-free, Canis lupus familiaris
[5] = target: T1, Cytochrome P450 2C8 (Homo sapiens, UniProt P10632); assay: […] of CYP2C8 (unknown origin); type: ADME
T1 sequence (P10632 whole entry): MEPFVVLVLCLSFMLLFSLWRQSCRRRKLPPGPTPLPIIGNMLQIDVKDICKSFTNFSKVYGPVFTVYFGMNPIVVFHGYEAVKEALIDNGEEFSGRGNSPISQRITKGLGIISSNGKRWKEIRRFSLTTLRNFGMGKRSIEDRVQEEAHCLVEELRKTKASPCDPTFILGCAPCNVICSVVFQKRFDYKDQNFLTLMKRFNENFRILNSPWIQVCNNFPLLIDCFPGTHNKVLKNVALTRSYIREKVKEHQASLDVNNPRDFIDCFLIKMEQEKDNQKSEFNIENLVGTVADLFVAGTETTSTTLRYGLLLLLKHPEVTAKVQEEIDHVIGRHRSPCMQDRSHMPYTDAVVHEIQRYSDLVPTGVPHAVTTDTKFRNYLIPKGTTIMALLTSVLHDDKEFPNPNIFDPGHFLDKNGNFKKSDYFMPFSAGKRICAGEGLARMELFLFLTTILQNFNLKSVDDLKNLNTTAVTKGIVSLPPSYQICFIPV

[6] = Apparent permeability in […] LLC-MDR1 cell; type: ADME, cell-based; details: LLC-PK1
[7] = Volume of distribution in rat at 1 mg/kg, iv; type: ADME, organism-based; details: in vivo
[8] = Mutagenicity in Salmonella typhimurium in presence of S9 fraction by Ames test; type: toxicity, subcellular; details: salmonella enterica subsp. enterica serovar typhimurium
[9] = target: Metabotropic glutamate receptor 8 (Homo sapiens, UniProt O00222); assay: Negative allosteric modulation at mGluR8 receptor (unknown origin) assessed as effect on intracellular calcium flux measured after 5 min by Fluo-4AM dye based FLIPR analysis; type: functional, cell-based
Metabotropic glutamate receptor 8, sequence (O00222 whole entry): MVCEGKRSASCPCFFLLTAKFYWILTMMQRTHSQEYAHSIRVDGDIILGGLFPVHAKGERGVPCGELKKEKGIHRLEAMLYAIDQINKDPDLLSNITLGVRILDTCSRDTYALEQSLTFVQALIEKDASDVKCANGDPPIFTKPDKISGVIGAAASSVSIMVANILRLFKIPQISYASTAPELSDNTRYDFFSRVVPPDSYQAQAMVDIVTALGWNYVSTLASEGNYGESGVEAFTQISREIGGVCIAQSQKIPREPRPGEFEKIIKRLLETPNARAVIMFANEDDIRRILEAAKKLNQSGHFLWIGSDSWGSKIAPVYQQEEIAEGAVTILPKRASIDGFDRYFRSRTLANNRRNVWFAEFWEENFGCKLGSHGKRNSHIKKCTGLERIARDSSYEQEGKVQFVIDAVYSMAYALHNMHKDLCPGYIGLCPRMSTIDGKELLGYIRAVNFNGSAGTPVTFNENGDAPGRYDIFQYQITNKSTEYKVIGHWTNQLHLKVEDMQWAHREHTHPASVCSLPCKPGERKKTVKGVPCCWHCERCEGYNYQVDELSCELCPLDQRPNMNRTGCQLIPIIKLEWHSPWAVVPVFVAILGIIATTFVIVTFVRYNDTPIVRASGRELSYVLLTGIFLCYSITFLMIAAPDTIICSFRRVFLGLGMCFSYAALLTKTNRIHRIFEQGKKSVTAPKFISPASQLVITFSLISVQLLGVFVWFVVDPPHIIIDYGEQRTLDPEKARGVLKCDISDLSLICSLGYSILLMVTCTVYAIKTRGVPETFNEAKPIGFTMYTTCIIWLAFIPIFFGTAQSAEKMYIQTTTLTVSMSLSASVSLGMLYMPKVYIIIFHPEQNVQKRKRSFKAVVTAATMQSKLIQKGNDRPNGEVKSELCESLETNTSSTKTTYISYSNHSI

[10] = target: Voltage-gated inwardly rectifying potassium channel KCNH2 (Homo sapiens, UniProt Q12809); assay: Displacement of [35S]-MK-499 from hERG expressed in HEK293 cells […]; type: toxicity, cell-based
Voltage-gated inwardly rectifying potassium channel KCNH2, sequence (Q12809 whole entry): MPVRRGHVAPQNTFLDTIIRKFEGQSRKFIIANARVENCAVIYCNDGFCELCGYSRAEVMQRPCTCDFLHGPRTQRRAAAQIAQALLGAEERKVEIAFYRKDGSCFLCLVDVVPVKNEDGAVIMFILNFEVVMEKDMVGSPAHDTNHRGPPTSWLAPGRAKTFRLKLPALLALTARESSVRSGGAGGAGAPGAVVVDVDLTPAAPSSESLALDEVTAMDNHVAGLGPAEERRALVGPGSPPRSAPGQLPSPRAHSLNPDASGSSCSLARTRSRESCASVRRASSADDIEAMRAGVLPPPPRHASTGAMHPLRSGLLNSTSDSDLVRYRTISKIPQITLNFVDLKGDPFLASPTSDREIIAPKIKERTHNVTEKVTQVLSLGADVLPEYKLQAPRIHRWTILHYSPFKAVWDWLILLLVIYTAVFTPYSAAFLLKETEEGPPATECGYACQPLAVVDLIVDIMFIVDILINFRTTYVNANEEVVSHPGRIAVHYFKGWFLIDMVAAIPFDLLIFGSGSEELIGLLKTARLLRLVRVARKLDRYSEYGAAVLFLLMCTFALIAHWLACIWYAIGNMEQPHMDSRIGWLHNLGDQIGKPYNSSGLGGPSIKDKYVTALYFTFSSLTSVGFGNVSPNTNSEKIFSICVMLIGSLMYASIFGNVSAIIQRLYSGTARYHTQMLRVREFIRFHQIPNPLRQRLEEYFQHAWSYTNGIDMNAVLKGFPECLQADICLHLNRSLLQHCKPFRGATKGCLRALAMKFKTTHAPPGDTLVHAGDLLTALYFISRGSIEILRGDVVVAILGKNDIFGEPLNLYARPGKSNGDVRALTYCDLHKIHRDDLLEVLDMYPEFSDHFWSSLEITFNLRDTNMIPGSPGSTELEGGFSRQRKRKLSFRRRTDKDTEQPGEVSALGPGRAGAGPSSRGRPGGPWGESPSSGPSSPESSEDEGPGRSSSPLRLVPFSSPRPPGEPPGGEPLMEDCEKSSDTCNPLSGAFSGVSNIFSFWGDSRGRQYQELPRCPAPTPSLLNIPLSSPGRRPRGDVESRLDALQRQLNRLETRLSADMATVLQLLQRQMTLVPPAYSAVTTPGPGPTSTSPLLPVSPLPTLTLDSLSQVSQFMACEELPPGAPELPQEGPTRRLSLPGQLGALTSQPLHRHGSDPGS

[11] = target: Metabotropic glutamate receptor 1 (Homo sapiens, UniProt Q13255); assay: Negative allosteric modulation at mGluR1 receptor (unknown origin) assessed as effect on intracellular calcium flux measured after 5 min by Fluo-4AM dye based FLIPR analysis; type: functional, cell-based
[12] = target: T2, Cytochrome P450 1A2 (Homo sapiens, UniProt P05177); assay: […] of CYP1A2 (unknown origin); type: ADME
T2 sequence (P05177 whole entry): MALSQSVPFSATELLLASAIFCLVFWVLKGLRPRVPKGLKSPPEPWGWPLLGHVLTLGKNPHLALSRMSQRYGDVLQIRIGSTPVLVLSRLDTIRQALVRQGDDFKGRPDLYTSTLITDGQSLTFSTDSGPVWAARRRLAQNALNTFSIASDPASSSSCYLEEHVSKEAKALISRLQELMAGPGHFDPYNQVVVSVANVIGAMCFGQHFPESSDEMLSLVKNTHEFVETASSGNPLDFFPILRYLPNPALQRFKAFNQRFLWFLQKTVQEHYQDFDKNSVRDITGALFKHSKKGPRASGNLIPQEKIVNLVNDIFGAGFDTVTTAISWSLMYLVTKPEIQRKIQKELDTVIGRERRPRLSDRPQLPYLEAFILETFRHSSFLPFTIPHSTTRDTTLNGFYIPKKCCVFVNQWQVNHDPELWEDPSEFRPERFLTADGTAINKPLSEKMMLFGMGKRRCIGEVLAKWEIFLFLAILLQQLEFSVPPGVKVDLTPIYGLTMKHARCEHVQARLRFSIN

[13] = Oral bioavailability in dog at 0.5 mg/kg; type: ADME, organism-based, Canis lupus familiaris; details: in vivo
[14] = target: Metabotropic glutamate receptor 6 (Homo sapiens, UniProt O15303); assay: Negative allosteric modulation at mGluR6 receptor (unknown origin) assessed as effect on intracellular calcium flux measured after 5 min by Fluo-4AM dye based FLIPR analysis; type: functional, cell-based
Metabotropic glutamate receptor 6, sequence (O15303 whole entry): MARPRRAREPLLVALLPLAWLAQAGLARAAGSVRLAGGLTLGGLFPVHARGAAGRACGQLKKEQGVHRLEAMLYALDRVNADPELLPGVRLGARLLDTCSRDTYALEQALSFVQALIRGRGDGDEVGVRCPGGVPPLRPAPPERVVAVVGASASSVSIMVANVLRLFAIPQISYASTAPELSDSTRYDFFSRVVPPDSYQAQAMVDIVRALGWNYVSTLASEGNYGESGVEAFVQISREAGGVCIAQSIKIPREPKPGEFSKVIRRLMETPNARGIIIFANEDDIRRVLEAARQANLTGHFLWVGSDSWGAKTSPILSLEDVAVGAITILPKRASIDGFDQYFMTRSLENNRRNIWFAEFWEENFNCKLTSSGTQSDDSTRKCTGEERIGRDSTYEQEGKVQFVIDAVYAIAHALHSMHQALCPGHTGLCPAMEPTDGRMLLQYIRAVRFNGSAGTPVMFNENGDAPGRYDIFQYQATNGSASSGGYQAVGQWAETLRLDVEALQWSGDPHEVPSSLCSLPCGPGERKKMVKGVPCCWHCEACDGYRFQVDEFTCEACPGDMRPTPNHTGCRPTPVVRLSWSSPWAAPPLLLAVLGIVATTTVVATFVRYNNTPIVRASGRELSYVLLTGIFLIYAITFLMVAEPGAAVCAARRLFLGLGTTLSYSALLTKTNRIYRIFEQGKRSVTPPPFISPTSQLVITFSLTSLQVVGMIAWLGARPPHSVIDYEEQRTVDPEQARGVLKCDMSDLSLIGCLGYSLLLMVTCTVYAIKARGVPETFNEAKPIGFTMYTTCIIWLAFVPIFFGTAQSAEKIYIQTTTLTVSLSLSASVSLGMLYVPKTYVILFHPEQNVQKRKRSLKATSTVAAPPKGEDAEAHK

[15] = target: Cytochrome P450 3A4 (Homo sapiens, UniProt P08684); assay: […] of CYP3A4 (unknown origin); type: ADME
Cytochrome P450 3A4, sequence (P08684 whole entry): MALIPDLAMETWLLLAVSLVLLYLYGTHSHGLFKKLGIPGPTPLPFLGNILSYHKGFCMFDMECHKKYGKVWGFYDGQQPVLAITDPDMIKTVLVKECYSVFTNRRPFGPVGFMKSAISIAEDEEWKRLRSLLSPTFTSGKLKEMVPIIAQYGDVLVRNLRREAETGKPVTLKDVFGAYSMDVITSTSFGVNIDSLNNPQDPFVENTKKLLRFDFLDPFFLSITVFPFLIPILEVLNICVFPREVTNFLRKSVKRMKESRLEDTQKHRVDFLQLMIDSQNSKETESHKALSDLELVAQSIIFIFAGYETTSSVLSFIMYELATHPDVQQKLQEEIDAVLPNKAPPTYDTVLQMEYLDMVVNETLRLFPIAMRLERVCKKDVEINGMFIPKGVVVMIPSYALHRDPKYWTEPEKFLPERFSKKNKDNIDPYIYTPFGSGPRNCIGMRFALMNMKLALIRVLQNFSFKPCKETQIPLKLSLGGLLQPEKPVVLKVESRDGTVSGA

[16] = Clearance in monkey at 0.5 mg/kg, iv; type: ADME, organism-based, Macaca mulatta; details: rhesus monkey, in vivo
[17] = target: Cytochrome P450 2D6 (Homo sapiens, UniProt P10635); assay: […] of CYP2D6 (unknown origin); type: ADME
Cytochrome P450 2D6, sequence (P10635 whole entry): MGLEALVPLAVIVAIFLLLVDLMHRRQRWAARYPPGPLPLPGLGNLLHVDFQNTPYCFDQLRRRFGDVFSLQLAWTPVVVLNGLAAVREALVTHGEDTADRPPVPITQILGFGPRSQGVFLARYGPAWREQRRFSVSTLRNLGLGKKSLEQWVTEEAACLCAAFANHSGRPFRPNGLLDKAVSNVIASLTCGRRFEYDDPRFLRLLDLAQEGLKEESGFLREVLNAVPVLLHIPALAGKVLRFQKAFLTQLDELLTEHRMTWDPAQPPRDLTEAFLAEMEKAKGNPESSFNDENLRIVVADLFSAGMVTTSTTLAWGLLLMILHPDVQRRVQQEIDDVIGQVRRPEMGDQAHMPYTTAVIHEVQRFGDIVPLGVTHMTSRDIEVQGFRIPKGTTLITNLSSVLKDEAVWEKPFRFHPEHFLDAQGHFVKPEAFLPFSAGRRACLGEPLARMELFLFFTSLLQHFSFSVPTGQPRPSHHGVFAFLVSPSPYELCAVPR

[18] = Volume of distribution in dog at 0.25 mg/kg, iv; type: ADME, organism-based, Canis lupus familiaris; details: in vivo
[19] = Effective half life in rat at 1 mg/kg, iv; type: ADME, organism-based; details: in vivo, read-out: t1/2eff (converted)
[20] = Solubility of the compound in FeSSIF; type: physicochemical
[21] = Solubility of the compound in FaSSIF; type: physicochemical
[22] = Solubility of the compound in SGF buffer; type: physicochemical
[23] = Clearance in rat at 1 mg/kg, iv; type: ADME, organism-based; details: in vivo
[24] = target: Metabotropic glutamate receptor 4 (Homo sapiens, UniProt Q14833); assay: Negative allosteric modulation at mGluR4 receptor (unknown origin) assessed as effect on intracellular calcium flux measured after 5 min by Fluo-4AM dye based FLIPR analysis; type: functional, cell-based
[25] = Fraction unbound in monkey plasma; type: ADME, cell-free, Macaca mulatta; details: rhesus monkey
[26] = target: T3, Cytochrome P450 2B6 (Homo sapiens, UniProt P20813); assay: […] of CYP2B6 (unknown origin); type: ADME
T3 sequence (P20813 whole entry): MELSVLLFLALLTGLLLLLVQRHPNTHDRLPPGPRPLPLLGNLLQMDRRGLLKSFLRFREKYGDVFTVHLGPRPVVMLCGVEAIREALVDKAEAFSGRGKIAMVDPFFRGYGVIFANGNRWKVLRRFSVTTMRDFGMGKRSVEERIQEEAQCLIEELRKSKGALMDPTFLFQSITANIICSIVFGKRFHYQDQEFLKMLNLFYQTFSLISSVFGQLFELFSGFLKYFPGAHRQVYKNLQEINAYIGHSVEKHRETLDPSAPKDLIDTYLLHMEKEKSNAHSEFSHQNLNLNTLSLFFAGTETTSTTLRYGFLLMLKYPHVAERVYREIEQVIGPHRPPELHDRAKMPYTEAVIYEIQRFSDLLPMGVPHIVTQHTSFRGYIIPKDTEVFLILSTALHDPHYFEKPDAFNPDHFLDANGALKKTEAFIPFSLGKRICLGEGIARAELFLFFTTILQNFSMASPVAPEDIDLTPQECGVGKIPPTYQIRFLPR

[27] = Fraction unbound in rat plasma; type: ADME, cell-free
[28] = target: Cytochrome P450 2C9 (Homo sapiens, UniProt P11712); assay: […] of CYP2C9 (unknown origin); type: ADME
Cytochrome P450 2C9, sequence (P11712 whole entry): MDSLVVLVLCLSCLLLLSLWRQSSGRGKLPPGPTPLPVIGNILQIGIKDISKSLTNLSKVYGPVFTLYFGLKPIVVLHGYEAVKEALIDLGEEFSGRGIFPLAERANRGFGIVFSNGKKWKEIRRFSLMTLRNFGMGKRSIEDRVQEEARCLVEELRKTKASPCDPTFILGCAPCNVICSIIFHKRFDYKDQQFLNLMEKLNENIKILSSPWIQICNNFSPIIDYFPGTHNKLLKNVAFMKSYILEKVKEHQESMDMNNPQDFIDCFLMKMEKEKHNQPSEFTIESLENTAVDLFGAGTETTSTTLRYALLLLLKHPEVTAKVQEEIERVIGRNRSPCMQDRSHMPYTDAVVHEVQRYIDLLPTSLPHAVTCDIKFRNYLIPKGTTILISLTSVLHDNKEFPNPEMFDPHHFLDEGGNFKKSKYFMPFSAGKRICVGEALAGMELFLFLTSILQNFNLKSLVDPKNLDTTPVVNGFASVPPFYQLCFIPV

[29] = Effective half life in monkey at 0.5 mg/kg, iv; type: ADME, organism-based, Macaca mulatta; details: rhesus monkey, in vivo, read-out: t1/2eff (converted)
[30] = Effective half life in dog at 0.25 mg/kg, iv; type: ADME, organism-based, Canis lupus familiaris; details: in vivo, read-out: t1/2eff (converted)
[31] = Clearance in dog at 0.25 mg/kg, iv; type: ADME, organism-based, Canis lupus familiaris; details: in vivo
[32] = Fraction unbound in human plasma; type: ADME, cell-free
[33] = Unbound plasma concentration in rhesus monkey at 0.01 to 1 mg/kg, IM; type: ADME, organism-based, Macaca mulatta; details: in vivo, dose 0.01-1 mg/kg

Cytochrome P450 2C19, sequence (P33261 whole entry): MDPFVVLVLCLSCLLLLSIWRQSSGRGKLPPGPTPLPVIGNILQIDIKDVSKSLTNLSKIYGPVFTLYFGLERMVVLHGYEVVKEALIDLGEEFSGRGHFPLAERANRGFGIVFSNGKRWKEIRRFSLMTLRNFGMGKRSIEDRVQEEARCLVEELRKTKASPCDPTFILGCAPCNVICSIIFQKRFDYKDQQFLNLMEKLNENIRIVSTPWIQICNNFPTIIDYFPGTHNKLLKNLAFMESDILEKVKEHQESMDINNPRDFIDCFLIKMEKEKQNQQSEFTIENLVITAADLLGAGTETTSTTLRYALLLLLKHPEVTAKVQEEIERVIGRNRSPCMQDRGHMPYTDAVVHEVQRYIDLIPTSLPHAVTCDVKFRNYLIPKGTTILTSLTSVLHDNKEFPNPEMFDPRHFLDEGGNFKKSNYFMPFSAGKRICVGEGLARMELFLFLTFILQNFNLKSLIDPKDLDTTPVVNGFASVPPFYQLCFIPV

Vd [1]: 3.2 L/kg
IC50 [2]: > 26 µM
bioavailability [3]: 32%
fraction unbound [4]: 0.045
IC50 [5]: > 26 µM
Papp [6]: 32 ×10⁻⁶ cm/s
Vd [7]: 5.7 L/kg
IC50 [9]: > 10 µM
IC50 [11]: > 10 µM
IC50 [12]: > 26 µM
bioavailability [13]: 34%
IC50 [14]: > 10 µM
IC50 [15]: > 26 µM
clearance [16]: 22 mL/min/kg
IC50 [17]: > 26 µM
Vd [18]: 7.3 L/kg
half-life [19]: 1.8 h
solubility [20]: 2100 µg/mL (≈ 4.85 mM)
solubility [21]: 440 µg/mL (≈ 1.02 mM)
solubility [22]: 4100 µg/mL (≈ 9.46 mM)
clearance [23]: 36 mL/min/kg
IC50 [24]: > 10 µM
fraction unbound [25]: 0.043
IC50 [26]: > 26 µM
fraction unbound [27]: 0.04
IC50 [28]: > 26 µM
half-life [29]: 1.7 h
half-life [30]: 3.3 h
clearance [31]: 24 mL/min/kg
fraction unbound [32]: 0.025
Cp(f) [33]: 3 nM
SMILES: C[C@@H]1CN(Cc2ccc3c(-c4cnn(C)c4)cc(C(N)=O)nc3c2)C[C@H](C(F)(F)F)O1
Activity [8]: Non-Toxic
IC50 [10]: 22 µM
